Source: PubChem BioAssay AID2305 (GlaxoSmithKline (GSK), 2010)

The molecules below were run on P. falciparum 3D7 growth, pLDH absorbance (assay: P. falciparum 3D7 growth inhibition, dose response, strain 3D7 (AID 2305)).
`COc1ccccc1C(=O)Nc1ccc(Nc2nc(C)cc(N(C)C)n2)cc1` gave an IC50 of 790 nM.
`COc1ccc2nc(/C=C/c3cccc4ccc(C)nc34)[nH]c2c1` gave an IC50 of 790 nM.
`Cc1nc(NCCCn2ccnc2)cc(-c2cncc(-c3ccc(OC(F)(F)F)cc3)c2)n1` gave an IC50 of 620 nM.
Work on `COc1ccc(CNCC(C)(C)c2nc(-c3ccc(Cl)c(O)c3)c(-c3ccncc3)[nH]2)cc1` yielded an IC50 of 360 nM.
`COc1ccc(Oc2ccc(-c3c(C)[nH]c(C)c(Cl)c3=O)cc2)cc1` showed an IC50 of 140 nM.
`CN1CCN(c2ccc3nccc(CCN4CCC(NCc5ccc6c(n5)NC(=O)CO6)CC4)c3n2)CC1` was tested, and the IC50 was 820 nM.
In the case of `CN1CCCc2ccc(NC(=O)c3cnc(-c4ccccc4)cn3)cc21`, the IC50 is reported as 910 nM.
`O=C(Nc1ccccc1)N(Cc1ccc(-c2cccc(CNC3CCCC3)c2)cc1)C1CCN(Cc2ccccc2)CC1` was tested, and the IC50 was 430 nM.
For `FC(F)(F)c1ccc2nc(-c3ccc(-c4ccc(CNCC5CCCO5)cc4)cc3)[nH]c2c1` (stereo not drawn), the IC50 was 410 nM.
Molecule `CC(C)Cn1cc(C2CCN(CCN3CCC(CNC(=O)c4ccc(NC(=O)c5cc(Cl)cc(Cl)c5)cc4)CC3)CC2)c2ccccc21` has an IC50 of 690 nM.
For `Cn1ccnc1CNC(=O)c1ccc(-c2cccc(-c3nc4ccc(F)cc4[nH]3)c2)cc1`, the IC50 was 980 nM.
`CS(=O)(=O)Nc1cccc(-c2cnc3[nH]cc(-c4cc(N)cc(C(=O)O)c4)c3c2)c1` showed an IC50 of 1080 nM.
`COc1cccc(-c2ccc3c(-c4ccc(F)cc4)cnc(N)c3c2)c1` gave an IC50 of 810 nM.
`CCCCNC(=O)c1cc(CNC2CCCCC2)ccc1-c1cccc(CNCc2ccc(-c3ccccc3)cc2)c1` showed an IC50 of 530 nM.
`Cc1cccc2[nH]c(-c3ccc(-c4cccc(CNCCCN5CCCC5=O)c4)cc3)nc12` gave an IC50 of 840 nM.
For `CCCNCc1ccc(-c2ccc(CN(CCOC)C(=O)CCc3ccc(OC)cc3)cc2)nc1`, the IC50 was 980 nM.
`CC=Cc1cc(Cc2cnc(N)nc2N)cc(CCC)c1OC` showed an IC50 of 780 nM.
`CCn1c(-c2nonc2N)nc2c(-c3cccc(NC(=O)Nc4cccc(C(F)(F)F)c4)c3)ncc(OCCCN)c21` was tested, and the IC50 was 970 nM.
In the case of `CCOC(=O)c1c(CCc2ccc(C(F)(F)F)cc2)nc2c(c1-c1ccc(C(=O)N[C@@H](C)c3ccncc3)cc1)C(=O)N1CCC[C@@H]21`, the IC50 is reported as 920 nM.
Molecule `Cc1ccc(Nc2nc3cc(Nc4ccnc(Nc5cccc(CS(C)(=O)=O)c5)n4)ccc3o2)cc1` has an IC50 of 920 nM.
`N#Cc1ccc(C2CCN(CC[C@H](N)Cc3ccc(Cl)s3)CC2)cc1` showed an IC50 of 1260 nM.
`O=c1cc(NCCCNCc2scc3c(Cl)cc(C(F)(F)F)nc23)[nH]c2ccccc12` showed an IC50 of 750 nM.
Molecule `O=C(NC(=S)NCc1ccncc1)c1ccccc1` has an IC50 of 1690 nM.
`O=C(NCCc1ccccc1)[C@H](Cc1ccccc1)Nc1ccnc(NCC2CCCCC2)n1` showed an IC50 of 1380 nM.
For `CS(=O)(=O)Cc1ccc(Nc2nccc(-c3c(-c4cccc(NC(=O)c5c(F)cccc5F)c4)nn4ncccc34)n2)cc1`, the IC50 was 160 nM.
With `NC1=NC2(CCCCC2)N(OCCCCCCN2C(=O)c3ccccc3C2=O)C(N)=N1` the IC50 was 870 nM.
For `CCN1CCN(c2cc(C)c3cc(NC(=O)c4cncc(Br)c4)ccc3n2)CC1`, the IC50 was 660 nM.
In the case of `CCC(CC)CN1C(=O)C(C)(c2ccccc2)N=C1N` (stereo not drawn), the IC50 is reported as 1060 nM.
`CN(C)Cc1cccc2[nH]c(-c3csc(Cc4cc(Cl)ccc4OCc4ccccc4)n3)nc12` showed an IC50 of 1120 nM.
`Cc1noc(C)c1-c1ccc2c(Nc3ccccc3C(C)(C)C)c(C(=O)NCc3ccc4c(c3)OCO4)cnc2c1` gave an IC50 of 910 nM.
With `c1cncc(Oc2ccc(Nc3ccnc4cc(-c5cccc(CN6CCCCC6)c5)ccc34)cc2)c1` the IC50 was 120 nM.
`CN(C)c1ccc2c(c1)Sc1cc(N(C)C)ccc1N2C(=O)c1cccc(C(=O)O)c1` gave an IC50 of 180 nM.
`CC(Cc1ccc(CN2CCN(Cc3ccccc3)CC2)cc1)NCC(O)c1cccc(C(F)(F)F)c1` (stereo not drawn) showed an IC50 of 890 nM.
In the case of `O=C(/C=C/c1ccc(Cl)c(Cl)c1)NCCCCCN1CCCN(C(=S)Nc2cccc(Cl)c2)CC1`, the IC50 is reported as 1050 nM.
`CCc1c(CCNCCCCCCNC(C)(C)Cc2ccc3c(c2CC)OCO3)ccc(OC)c1OC` gave an IC50 of 930 nM.
For `CS(=O)(=O)c1ccccc1CNC(=O)c1ccc(-c2ccc(-c3nc4ccc(C(F)(F)F)cc4[nH]3)s2)cc1`, the IC50 was 240 nM.
For `CC(C)c1nc(N2CCN(C(=S)NCc3ccccc3)CC2)c(C#N)c2c1COC(C)(C)C2`, the IC50 was 140 nM.
`CCOc1ccc2nc(C)cc(NN=Cc3cccnc3)c2c1` gave an IC50 of 150 nM.
With `CCOC(=O)NCC(=O)Nc1cccc(-c2cccc(-c3nc4ccc(C(F)(F)F)cc4[nH]3)c2)c1` the IC50 was 630 nM.
`N=C(N)CCN(Cc1ccccc1)c1ccc(Cl)cc1` was tested, and the IC50 was 260 nM.
In the case of `O=C(N[C@H]1CCN(CCc2ccc(O[C@H]3CCNC3)c(Br)c2)C1)c1ccc(Cl)c(Cl)c1`, the IC50 is reported as 660 nM.
`NC(=O)c1cnc2ccc(-c3cncs3)cc2c1Nc1ccc(F)c(Cl)c1` gave an IC50 of 180 nM.
Work on `C[C@@H]1CN(c2nc(NCCc3ccc(O)cc3)nc(NCc3ccccc3-c3ccc(C(F)(F)F)cc3)n2)C[C@H](C)N1` yielded an IC50 of 530 nM.
Work on `Cc1cccc2[nH]c(-c3ccc(-c4cccc(NC(=O)NCc5cccc(F)c5)c4)cc3)nc12` yielded an IC50 of 850 nM.
For `COc1ccc2nccc(N3CCC(CCNCc4ccc5c(n4)NC(=O)CS5)CC3)c2n1`, the IC50 was 230 nM.
Work on `CN1CCN(CC(O)CNC(=O)Nc2ccc(Cl)cc2)CC1` (stereo not drawn) yielded an IC50 of 230 nM.
`COc1cc(NC(=O)c2sc(-c3ccc(Cl)cc3)cc2NC(=O)CN2CCCC2)ccc1OCCN1CCCC1` showed an IC50 of 930 nM.
`O=C(/C=C/c1ccc(Cl)c(Cl)c1)NCCCCCN1CCC(c2c[nH]c3ccc(O)cc23)CC1` gave an IC50 of 890 nM.
Molecule `COc1cccc(Nc2nc(C)cc(Nc3cccc(C#N)c3)n2)c1` has an IC50 of 1080 nM.
Molecule `O=C1OC(c2ccccc2)(c2ccccc2)CN1CC1CCN(Cc2ccc(O)c(Cl)c2)CC1` has an IC50 of 820 nM.
In the case of `Cc1cc(N(C)C2CCN(C)C2)nc(Nc2ccc(Cl)cc2)n1` (stereo not drawn), the IC50 is reported as 340 nM.
Molecule `CCN(CC)CCCN(CCCN(CC)CC)c1cc(C)nc(Nc2ccc(Cl)cc2)n1` has an IC50 of 210 nM.
For `CCc1cc(Br)c2c(c1)C(NCCCNc1cc(=O)c3ccccc3[nH]1)CCN2` (stereo not drawn), the IC50 was 850 nM.
In the case of `CC[C@H]1CN2CCc3cc(OC)c(OC)cc3[C@@H]2C[C@@H]1CC1=NCCc2c1[nH]c1ccc(OCc3ccccc3)cc21`, the IC50 is reported as 770 nM.
Molecule `CCCCCc1cc(O)c2c(c1)OC(C)(C)CC2C1=CCN(Cc2cnc3ccccc3c2)CC1` (stereo not drawn) has an IC50 of 280 nM.
With `COc1ccc(NC(=O)/C=C/c2ccccc2Cl)cc1OCCN1CCC(c2nc3ccccc3[nH]2)CC1` the IC50 was 860 nM.
In the case of `O=C(NC1CCC(CN2CCC(c3c[nH]c4ccccc34)CC2)CC1)c1ccc(-c2cc(C(F)(F)F)ccc2Cl)o1` (stereo not drawn), the IC50 is reported as 710 nM.
With `Cc1c2ccncc2c(C)c2c1[nH]c1cc(Cc3ccccc3)c(O)cc12` the IC50 was 150 nM.
With `O=C(Cc1cnc[nH]1)Nc1cccc(-c2cccc(-c3nc4ccc(F)cc4[nH]3)c2)c1` the IC50 was 780 nM.
`Fc1ccc(-c2nc(NCc3cccc(C(F)(F)F)c3)nn2-c2cccc(C(F)(F)F)c2)cc1C(F)(F)F` showed an IC50 of 1050 nM.
`Cc1n[nH]c(C)c1C1CCN(CC2CCC(NC(=O)/C=C/c3ccc(Cl)c(Cl)c3)CC2)CC1` (stereo not drawn) showed an IC50 of 730 nM.
Molecule `Cc1cc(N(C)CCN(C)C)nc(Nc2ccc(Br)cc2)n1` has an IC50 of 800 nM.
For `CN(C)CCCNc1ncnc2c1[nH]c1ccc(Br)cc12`, the IC50 was 320 nM.
`CCc1nn2c(Nc3ccncc3)cc(C)nc2c1-c1ccccc1` gave an IC50 of 200 nM.
In the case of `Cc1cccc2[nH]c(-c3ccc(-c4ccc(CNCCNC(=O)c5ccnn5C)cc4)cc3)nc12`, the IC50 is reported as 480 nM.
`CCN(C(=O)NC)[C@@H]1c2cc(C#N)ccc2OC(C)(C)[C@H]1O` gave an IC50 of 300 nM.
In the case of `COc1ccc(Nc2c3ccc(Cl)cc3nc3ccc(OC)cc23)cc1`, the IC50 is reported as 440 nM.
For `O=C(Nc1ccc(Cl)cc1)Nc1ccc2nonc2c1`, the IC50 was 1100 nM.
`CN(C)Cc1ccc(-c2ccc3ccnc(N)c3c2)cc1` showed an IC50 of 380 nM.
With `COc1ccc(-c2ccc(NC(=O)c3ccc(C#N)cc3)cc2)cc1CN(C)CCN(C)C` the IC50 was 660 nM.
For `C=CCNC(=O)C(C)c1ccc2cc(OC)ccc2c1` (stereo not drawn), the IC50 was 420 nM.
In the case of `O=c1cc(NC[C@H]2CCC[C@@H]2NC2CCCc3c2[nH]c2ccccc32)[nH]c2ccccc12` (stereo partly drawn), the IC50 is reported as 790 nM.
For `CC(=O)Nc1ccc(C(=O)NC2CCN(c3ccnc4cc(Cl)ccc34)C2)cc1` (stereo not drawn), the IC50 was 810 nM.
With `CCOc1ccc(-c2nonc2NC(=O)c2cccs2)cc1OCC` the IC50 was 760 nM.
With `CCCSc1nc2c(c(=O)n1Cc1ccco1)C1(CCCCC1)Cc1ccccc1-2` the IC50 was 420 nM.
`COc1cc(C=CC(=O)N2CCN(Cc3cccc(C)c3)CC2)ccc1OCc1c(C)noc1C` was tested, and the IC50 was 1030 nM.
For `Cc1cccc(C=NNc2cc(C)nc3ccc(F)cc23)n1`, the IC50 was 1000 nM.
Work on `CN(Cc1cnc2nc(N)nc(N)c2n1)c1ccc(C(=O)N[C@H](CCC(=O)OC(C)(C)C)C(=O)N[C@@H](CCC(=O)OC(C)(C)C)C(=O)OC(C)(C)C)cc1` yielded an IC50 of 1020 nM.
`CCN(CC)C(=NCCCCCCCCN=C(/N=C(/N)Nc1ccc(Cl)cc1)N(CC)CC)/N=C(/N)Nc1ccc(Cl)cc1` was tested, and the IC50 was 400 nM.
`CC(C)CCN(Cc1cncn1Cc1ccccc1F)C(=O)c1cncc(-c2ccccc2)c1` showed an IC50 of 790 nM.
For `O=C(Nc1cccc(-c2ccc(-c3nc4ccc(C(F)(F)F)cc4[nH]3)cc2)c1)Nc1ccc(F)c(F)c1F`, the IC50 was 260 nM.
`Cc1cc(Nc2cccc(C(F)(F)F)c2)nc(Nc2cccc(C(F)(F)F)c2)n1` was tested, and the IC50 was 640 nM.
Work on `CCn1c(Sc2ccc(C#N)c([N+](=O)[O-])c2)nnc1-c1cc(OC)cc(OC)c1` yielded an IC50 of 570 nM.
`O=C(Nc1ccccc1)Nc1cccc(-c2nn3c(OCC4CCCCN4)cccc3c2-c2ccncc2)c1` (stereo not drawn) gave an IC50 of 860 nM.
`Cc1cccc(CCCNC(=O)CN(c2cccc(C(F)(F)F)c2)S(=O)(=O)c2ccc(C(F)(F)F)cc2)c1` was tested, and the IC50 was 680 nM.
With `O=C(Nc1cccc(CN2CCCN(Cc3ccc(O)cc3)CC2)c1)c1cccc(C(F)(F)F)c1` the IC50 was 310 nM.
For `Clc1ccc2c(NCCNc3ccnc4cc(Cl)ccc34)ccnc2c1`, the IC50 was 400 nM.
Work on `Fc1cc(Cl)ccc1Nc1ccnc2cc(-c3ccc(CN4CCCCC4)o3)ccc12` yielded an IC50 of 340 nM.
`COc1ccc(-c2cc3ncnc(N4CCN(CCN5CCCC5)CC4)c3s2)cc1` showed an IC50 of 830 nM.
For `CNC(=O)c1cncc(/C=C/c2ccccc2S(N)(=O)=O)c1`, the IC50 was 690 nM.
`COc1ccc(S(=O)(=O)N(CC(=O)NN=C(C)c2cccs2)c2cc(C)cc(C)c2)cc1OC` gave an IC50 of 140 nM.
In the case of `COc1ccc(Br)cc1/C=C/C(=O)Nc1ccc2c(c1)CCCN(C)C2`, the IC50 is reported as 1560 nM.
With `N#Cc1cccc(C(=O)Nc2ccc(-c3cccc(CN4CCCC4)c3)cc2)c1` the IC50 was 710 nM.
In the case of `Oc1ccc2ccccc2c1CNCCC1CCCCC1`, the IC50 is reported as 170 nM.
In the case of `Cc1cc(CNC(=O)c2ccc(-c3ccc(-c4nc5ccc(C(F)(F)F)cc5[nH]4)s3)cc2)on1`, the IC50 is reported as 730 nM.
Work on `CCOc1ccc(-c2noc(-c3c[nH]c4ccccc4c3=O)n2)cc1` yielded an IC50 of 210 nM.
With `CCCCCCCc1c(C)[nH]c2c(OC)cccc2c1=O` the IC50 was 920 nM.
With `N=C(N)c1cc(Cl)cc(NC(=O)Nc2cc(Cl)cc(C(=N)N)c2)c1` the IC50 was 720 nM.
